Test results as given in PubChem BioAssay AID180 (DTP/NCI, 2004).
“And” between values parts separate entries of the source, which are not always exact repeats. Identical values can stand only once.

System: BDF1 mice, Adenocarcinoma 755 s.c., tumor weight T/C
Test: NCI In Vivo Anticancer Drug Screen. Data for tumor model Adenocarcinoma 755 (subcutaneous) in B6D2F1 (BDF1) mice
Settings: endpoint: mean tumor weight, higher = larger tumour
How it was run: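 In vivo antitumor screen on a transplantable tumor line. Result equals the measure in compound-treated animals divided by the same measure in vehicle controls.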

[1] = dose: 15.0 mg/kg/injection, schedule: Q01DX011 (ip), vehicle: methylcellulose (MC)
[2] = dose: 3.0 mg/kg/injection, schedule: Q01DX011 (ip), vehicle: carboxymethylcellulose (CMC)

## CC1CN1C(=O)c1cc(C(=O)N2CC2C)cc(C(=O)N2CC2C)c1 (stereo unspecified)
[1]
  T/C: 69 % of control
dose: 30.0 mg/kg/injection, schedule: Q01DX011 (ip), vehicle: methylcellulose (MC)
  T/C: 57 % of control and 64 % of control

## CCOC(=O)c1c(C#N)c(Cl)nc(C)c1[N+](=O)[O-]
dose: 1.5 mg/kg/injection, schedule: Q01DX011 (ip), vehicle: carboxymethylcellulose (CMC)
  T/C: 60 % of control
[2]
  T/C: 70 % of control

## Nc1nc(SN=Nc2ccc(S(=O)(=O)O)cc2)c2[nH]cnc2n1
dose: 0.13 mg/kg/injection, schedule: Q01DX011 (sc), vehicle: alkali diluted with saline
  T/C: 70 % of control
dose: 0.25 mg/kg/injection, schedule: Q01DX011 (sc), vehicle: alkali diluted with saline
  T/C: 48 % of control
dose: 0.5 mg/kg/injection, schedule: Q01DX011 (ip), vehicle: alkali diluted with saline
  T/C: 50 % of control
dose: 0.5 mg/kg/injection, schedule: Q01DX011 (ip), vehicle: other
  T/C: 46 % of control
dose: 0.5 mg/kg/injection, schedule: Q01DX011 (sc), vehicle: alkali diluted with saline
  T/C: 32 % of control
dose: 1.0 mg/kg/injection, schedule: Q01DX011 (ip), vehicle: alkali diluted with saline
  T/C: 12 % of control
dose: 1.0 mg/kg/injection, schedule: Q01DX011 (ip), vehicle: other
  T/C: 3 % of control
dose: 2.0 mg/kg/injection, schedule: Q01DX011 (ip), vehicle: alkali diluted with saline
  T/C: 1 % of control
dose: 8.0 mg/kg/injection, schedule: Q01DX011 (ip), vehicle: alkali diluted with saline
  T/C: 1 % of control

## c1ccc2c3c(ccc2c1)Sc1ccc2ccccc2c1N3
dose: 27.5 mg/kg/injection, schedule: Q01DX011 (ip), vehicle: methylcellulose (MC)
  T/C: 73 % of control
dose: 27.5 mg/kg/injection, schedule: Q01DX011 (ip), vehicle: other
  T/C: 108 % of control
dose: 55.0 mg/kg/injection, schedule: Q01DX011 (ip), vehicle: methylcellulose (MC)
  T/C: 76 % of control
dose: 55.0 mg/kg/injection, schedule: Q01DX011 (ip), vehicle: other
  T/C: 115 % of control
dose: 110.0 mg/kg/injection, schedule: Q01DX011 (ip), vehicle: methylcellulose (MC)
  T/C: 58 % of control
dose: 440.0 mg/kg/injection, schedule: Q01DX011 (ip), vehicle: other
  T/C: 64 % of control

## Nc1nc(Cl)cc(-c2ccccc2)n1
[1]
  T/C: 86 % of control
dose: 31.0 mg/kg/injection, schedule: Q01DX011 (ip), vehicle: methylcellulose (MC)
  T/C: 122 % of control
dose: 62.0 mg/kg/injection, schedule: Q01DX011 (ip), vehicle: methylcellulose (MC)
  T/C: 94 % of control
dose: 125.0 mg/kg/injection, schedule: Q01DX011 (ip), vehicle: methylcellulose (MC)
  T/C: 65 % of control
dose: 250.0 mg/kg/injection, schedule: Q01DX011 (ip), vehicle: methylcellulose (MC)
  T/C: 107 % of control

## COc1ccc(C[n+]2cc([O-])on2)cc1
dose: 0.39 mg/kg/injection, schedule: Q01DX011 (ip), vehicle: carboxymethylcellulose (CMC)
  T/C: 75 % of control
dose: 0.78 mg/kg/injection, schedule: Q01DX011 (ip), vehicle: carboxymethylcellulose (CMC)
  T/C: 80 % of control
dose: 1.56 mg/kg/injection, schedule: Q01DX011 (ip), vehicle: carboxymethylcellulose (CMC)
  T/C: 63 % of control
[2]
  T/C: 70 % of control
dose: 6.0 mg/kg/injection, schedule: Q01DX011 (ip), vehicle: carboxymethylcellulose (CMC)
  T/C: 89 % of control
dose: 6.25 mg/kg/injection, schedule: Q01DX011 (ip), vehicle: carboxymethylcellulose (CMC)
  T/C: 57 % of control
dose: 12.0 mg/kg/injection, schedule: Q01DX011 (ip), vehicle: carboxymethylcellulose (CMC)
  T/C: 52 % of control
dose: 12.5 mg/kg/injection, schedule: Q01DX011 (ip), vehicle: carboxymethylcellulose (CMC)
  T/C: 51 % of control
dose: 24.0 mg/kg/injection, schedule: Q01DX011 (ip), vehicle: carboxymethylcellulose (CMC)
  T/C: 67 % of control

## Cc1ccc2c(c1)CCCN2C(=O)CCCl
dose: 25.0 mg/kg/injection, schedule: Q01DX011 (ip), vehicle: methylcellulose (MC)
  T/C: 101 % of control
dose: 75.0 mg/kg/injection, schedule: Q01DX011 (ip), vehicle: methylcellulose (MC)
  T/C: 40 % of control
dose: 225.0 mg/kg/injection, schedule: Q01DX011 (ip), vehicle: methylcellulose (MC)
  T/C: 60 % of control
